In the NIST ThermoML archive (doi:10.1021/je7000039):
± gives the expanded uncertainty stated by the source.

Conditions: Crystal; DTA

Normal melting temperature [°C] | Compound
83.98 ± 0.5 | CO[C@H]1O[C@@H]2O[C@@]3(C)CC[C@H]4[C@H](C)CC[C@@H]([C@H]1C)[C@@]24OO3 [beta-artemether]
139.66 ± 0.5 | C[C@H]1[C@H](OC(=O)CCC(=O)O)O[C@@H]2O[C@@]3(C)CC[C@H]4[C@H](C)CC[C@@H]1[C@@]24OO3 [artesunate]

Compound | Normal melting temperature [°C]
C[C@@H]1CC[C@H]2[C@@H](C)C(=O)O[C@@H]3O[C@@]4(C)CC[C@@H]1[C@]32OO4 [artemisinin] | 148.28 ± 0.5
